# Source: ChEMBL document CHEMBL1177693, “Antimalarials from nature” (Bioorg Med Chem, 2009)
# Test system: Plasmodium falciparum
# Test: Antimalarial activity against chloroquine-resistant Plasmodium falciparum Dd2
# Format: functional, organism-based
# Conditions: not given
row,SMILES,IC50 [µg/mL]
1,COc1ccc(-c2coc3cc(O)ccc3c2=O)cc1O [CALYCOSIN],9.8
2,C=C1C(=O)O[C@H]2[C@H]1[C@@H](OC(C)=O)CC(=C)[C@]1(O)CC=C(C)[C@H]21,10.8
3,O=c1c(-c2ccc(O)cc2)coc2cc(O)cc(O)c12 [GENISTEIN],4.1
4,COc1ccc(-c2cc(=O)oc3c(OC)c(OC)cc(OC)c23)cc1,3.6
5,COc1ccc(-c2cc(=O)c3c(O)cc(O)cc3o2)cc1 [ACACETIN],12.6

# Target: T1, Enoyl-acyl-carrier protein reductase (Plasmodium falciparum, UniProt Q965D5)
# T1 sequence (Q965D5 whole entry): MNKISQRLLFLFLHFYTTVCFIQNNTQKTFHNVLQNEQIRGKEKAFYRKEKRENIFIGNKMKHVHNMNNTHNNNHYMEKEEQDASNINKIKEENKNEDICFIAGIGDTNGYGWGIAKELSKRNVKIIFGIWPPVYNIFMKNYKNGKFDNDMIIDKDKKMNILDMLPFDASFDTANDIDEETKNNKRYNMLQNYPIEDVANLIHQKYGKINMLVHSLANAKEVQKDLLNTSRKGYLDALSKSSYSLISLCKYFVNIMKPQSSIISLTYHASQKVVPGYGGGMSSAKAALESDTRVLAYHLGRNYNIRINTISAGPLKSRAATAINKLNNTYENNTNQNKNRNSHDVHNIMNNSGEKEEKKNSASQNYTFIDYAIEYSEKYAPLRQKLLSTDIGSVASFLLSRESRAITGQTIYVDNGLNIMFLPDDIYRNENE
# Test: Inhibition of Plasmodium falciparum Fabl
# Conditions: not given
row,SMILES,IC50 [µM]
1,O=c1cc(-c2ccc(O)c(O)c2)oc2cc(O[C@@H]3O[C@H](CO)[C@@H](O)[C@H](O)[C@H]3O)cc(O)c12 [GALUTEOLIN],22.3
2,OCC1=C[C@@H]2OCC[C@@H]2[C@@H]1CO,588

# Test system: Plasmodium falciparum
# Test: Antimalarial activity against Plasmodium falciparum D6
# Format: functional, organism-based
# Conditions: not given
row,SMILES,IC50 [µg/mL]
1,COc1cc(/C=C/C(=O)CC(=O)/C=C/c2ccc(O)c(OC)c2)ccc1O [CURCUMIN],3.5

# Test system: Plasmodium falciparum
# Test: Antimalarial activity against Plasmodium falciparum NF54
# Format: functional, organism-based
# Conditions: not given
row,SMILES,IC50
1,COc1c2c(c(O)c3c4c(c(C)cc13)[C@@H]1O[C@@]3(C(OC)OC)O[C@@H]1[C@@](O[C@H]1C[C@@H](O)[C@@](O)(C(C)=O)[C@H](C)O1)(O4)[C@@]31CO1)C(=O)[C@@H](O)C[C@@H]2O[C@H]1C[C@@](C)(O)[C@H](OC(C)=O)[C@H](C)O1 [TRIOXACARCIN A],0.0017 µg/mL
2,C[C@@H]1O[C@@H](Oc2cc3oc(-c4ccc(O)c(O)c4)cc(=O)c3c(O)c2O)[C@H](O)[C@H](O)[C@H]1O,3.32 µM
3,COc1c2c(c(O)c3c4c(c(C)cc13)[C@@H]1O[C@@]3(C(OC)OC)O[C@@H]1[C@@](O[C@H]1C[C@@H](O)[C@@](O)(C(C)=O)[C@H](C)O1)(O4)[C@@]31CO1)C(=O)[C@@H](O)C[C@@H]2O[C@H]1C[C@@](C)(O)[C@H](O)[C@H](C)O1 [TRIOXACARCIN D],0.0017 µg/mL

# Test system: Plasmodium falciparum
# Test: Antimalarial activity against chloroquine-sensitive Plasmodium falciparum PoW
# Format: functional, organism-based
# Conditions: not given
row,SMILES,IC50 [µg/mL]
1,COc1ccc(-c2coc3cc(O)ccc3c2=O)cc1O [CALYCOSIN],4.2
2,O=c1c(-c2ccc(O)cc2)coc2cc(O)cc(O)c12 [GENISTEIN],2
3,COc1ccc(-c2cc(=O)c3c(O)cc(O)cc3o2)cc1 [ACACETIN],5.5

# Test system: Plasmodium vivax
# Test: Antimalarial activity against Plasmodium vivax infected in human HepG2-A16 cells assessed as reduction of trophozoites level
# Format: functional
# Set-up: scale not given: the % may be the effect or the level left
# Conditions: not given
row,SMILES,Activity [%]
1,CC(CO)CCC(=O)[C@@H](C)[C@H]1[C@H](O)C[C@H]2[C@@H]3CCC4=CC(=O)CC[C@]4(C)[C@H]3CC[C@]12C (stereo not given in full),47
2,CC(CCC1(O)C[C@@H]2C[C@H]3[C@@H]4CCC5=CC(=O)CC[C@]5(C)[C@H]4CC[C@]3(C)[C@H]2[C@@H]1C)CO[C@@H]1O[C@H](CO)[C@@H](O)[C@H](O)[C@H]1O (stereo not given in full),39

# Test system: Plasmodium falciparum
# Test: Antimalarial activity against chloroquine-resistant Plasmodium falciparum FCB1
# Format: functional, organism-based
# Conditions: FcB1/Columbia
row,SMILES,IC50 [µM]
1,O=C(Oc1cc(O)cc2c1C[C@H](O)[C@@H](c1ccc(O)c(O)c1)O2)c1cc(O)c(O)c(O)c1,1.2
2,O=C(O[C@H]1Cc2c(O)cc(O)cc2O[C@@H]1c1ccc(O)c(O)c1)c1cc(O)c(O)c(O)c1 [CATECHIN GALLATE],1

# Test system: Plasmodium falciparum
# Test: Antimalarial activity against chloroquine-sensitive Plasmodium falciparum D6
# Format: functional, organism-based
# Conditions: not given
row,SMILES,IC50 [µM]
1,COc1ccc(C[C@H]2NC[C@H](O)[C@H]2OC(C)=O)cc1 [ANISOMYCIN],4.6
2,C/C=C/C/C=C/CCC(=O)[C@H]1O[C@H]1C(N)=O [CERULENIN],10.1
3,O=C(O)[C@@H]1[C@H](C(=O)O)[C@H]2CC[C@@H]1O2 [ENDOTHALL],7.8

# Test system: Plasmodium berghei
# Test: Antiplasmodial activity against chloroquine-sensitive Plasmodium berghei
# Format: functional, organism-based
# Conditions: not given
SMILES,ED50 [mg/kg],IC50 [µM]
COC(C)(C)[C@@H]1C=C2C(=O)[C@H]3O[C@H]3C3C=CC(C2C(=O)/C1=C/CO)[C@H]3O (stereo not given in full),5.2,0.0021

# Test system: Plasmodium falciparum
# Test: Antimalarial activity against Plasmodium falciparum
# Format: functional, organism-based
# Conditions: Plasmodium falciparum
SMILES,IC50,EC50 [µg/mL]
CO[C@H]1[C@@H](O)[C@H](O[C@H]2[C@@H](OC)C[C@H](O[C@H]3[C@@H](OC)C[C@@H](O[C@H]4CC[C@@]5(C)C(=CC[C@@H]6[C@@H]5C[C@@H](OC(=O)c5ccccc5)[C@]5(C)[C@@H]([C@H](C)OC(C)=O)CC[C@]65O)C4)O[C@@H]3C)O[C@@H]2C)O[C@H](C)[C@H]1O,6.25 µg/mL,–
Cc1cc(O)c2c(c1)[C@H]([C@H]1O[C@H](OC(=O)c3ccccc3)[C@@H](O)[C@@H](O)[C@@H]1O)c1cccc(O)c1C2=O [UVEOSIDE],2.4 µM,–
C[C@H]1[C@H](O)CCC2=CC(=O)[C@@]3([C@@]4(CO)CO4)O[C@@H]3[C@@]21C,–,0.5
COC1=C(OC)C(=O)C([C@H]2COc3c(cc(OC)c(OC)c3OC)C2)=CC1=O [ABRUQUINONE B],1.5 µg/mL,–
COc1cc2c(cc1O)CCN(C)[C@H]2Cc1ccc(Oc2c(O)c(OC)cc3c2C[C@@H]2c4c(cc(OC)c(OC)c4-3)CCN2C)cc1,0.0112 µg/mL,–
CC(C)=CCc1cc(/C=C/C(=O)c2cc(CC=C(C)C)c(O)cc2O)ccc1O [STIPULIN],5.13 µM,–
C=C1CC[C@@H]2[C@@](C)(COC(=O)/C=C/c3ccc(O)cc3)CCC[C@@]2(C)[C@@H]1CC[C@H](C)CC(=O)O,4.3 µg/mL,–
C=C(C)C(=O)O[C@@H]1C[C@@]2(C)OC(=CC2=O)/C(CO)=C\[C@H]2OC(=O)C(=C)[C@@H]21,1.2 µg/mL,–

# Test system: Plasmodium falciparum
# Test: Antimalarial activity against Plasmodium falciparum K1
# Format: functional, organism-based
# Conditions: not given
row,SMILES,IC50
1,COc1c2c(c(O)c3c4c(c(C)cc13)[C@@H]1O[C@@]3(C(OC)OC)O[C@@H]1[C@@](O[C@H]1C[C@@H](O)[C@@](O)(C(C)=O)[C@H](C)O1)(O4)[C@@]31CO1)C(=O)[C@@H](O)C[C@@H]2O[C@H]1C[C@@](C)(O)[C@H](OC(C)=O)[C@H](C)O1 [TRIOXACARCIN A],0.0015 µg/mL
2,C[C@@H]1O[C@@H](Oc2cc3oc(-c4ccc(O)c(O)c4)cc(=O)c3c(O)c2O)[C@H](O)[C@H](O)[C@H]1O,2.13 µM
3,COc1c2c(c(O)c3c4c(c(C)cc13)[C@@H]1O[C@@]3(C(OC)OC)O[C@@H]1[C@@](O[C@H]1C[C@@H](O)[C@@](O)(C(C)=O)[C@H](C)O1)(O4)[C@@]31CO1)C(=O)[C@@H](O)C[C@@H]2O[C@H]1C[C@@](C)(O)[C@H](O)[C@H](C)O1 [TRIOXACARCIN D],0.0015 µg/mL

# Test system: Plasmodium falciparum
# Test: Antimalarial activity against Plasmodium falciparum W2
# Format: functional, organism-based
# Conditions: not given
row,SMILES,IC50 [µg/mL]
1,COc1cc(/C=C/C(=O)CC(=O)/C=C/c2ccc(O)c(OC)c2)ccc1O [CURCUMIN],4.2
